“And” between values parts separate entries of the source, which are not always exact repeats. Equal entries are not always repeated. “Also recorded” adds a separate entry of the source.
How the values were obtained:
rats = test: Delayed-type hypersensitivity (DTH) response in DNFB-sensitized rats, ear thickness; type: in vivo, rat; conditions: single dose of 10 micrograms, 24 hours
From the text: In order to perform this kind of experiment we set up a protocol to study DTH response in rats. The system used is basically that described by Phanuphak et al., 1974. In brief, two groups of rats (3 or 5 animals each) were sensitized by applications of 40 microliters of 0.7% DNFB in 4:1 proportion of acetone: olive oil solution, in two consecutive days (days one and two), after gentle shaving of the dorsal-back region of the animals. After 7 days of the second application of the sensitizing solution, the animals were challenged by a single application of 20 microliter of 0.4% DNFB dissolved in the acetone: olive oil solution described above. This solution was spread over the dorsal surface of the right-side ears and allowed to dry, whereas the left-side ears were spread with only the vehicle solution (acetone:olive oil). On day eight of the protocol, a subcutaneous injection of 100 microliter of phosphate saline buffer pH 7.8 (PBS) was applied to each one of the animals used as control, whereas to the experimental group of rats, an amount of 10 micrograms pure Vm24 in 100 microliters PBS was subcutaneously applied. The thickness of both ears of all animals was measured 24 hours after of the application of Vm24.

mice = test: In vivo toxicity / lethality test by injection into mice; conditions: injected
hKv1.2 = hKv1.2 (Homo sapiens, UniProt P16389); test: Patch-clamp block of hKv1.2 channels expressed in Cos-7 cells; conditions: for remaining current fraction (RCF) hKv1.2: n=3
Chain of hKv1.2 (P16389 whole entry): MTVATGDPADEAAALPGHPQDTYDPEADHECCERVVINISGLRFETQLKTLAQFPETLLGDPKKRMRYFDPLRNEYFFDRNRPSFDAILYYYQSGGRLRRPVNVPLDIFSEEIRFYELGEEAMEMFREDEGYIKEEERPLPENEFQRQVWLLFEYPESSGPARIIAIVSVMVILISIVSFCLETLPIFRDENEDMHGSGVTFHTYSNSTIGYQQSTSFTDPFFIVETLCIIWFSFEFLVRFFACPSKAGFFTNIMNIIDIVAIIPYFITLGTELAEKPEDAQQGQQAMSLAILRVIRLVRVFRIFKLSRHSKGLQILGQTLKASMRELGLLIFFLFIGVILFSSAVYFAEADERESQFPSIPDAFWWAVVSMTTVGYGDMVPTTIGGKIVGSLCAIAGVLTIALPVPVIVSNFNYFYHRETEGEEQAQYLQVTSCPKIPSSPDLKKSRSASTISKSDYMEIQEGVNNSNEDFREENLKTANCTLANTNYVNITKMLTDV

rKv2.1 = target: T1, rKv2.1 (Rattus norvegicus, UniProt P15387); test: Patch-clamp block of rKv2.1 channels expressed in Cos-7 cells; conditions: 10 nM
T1 sequence (P15387 1-857): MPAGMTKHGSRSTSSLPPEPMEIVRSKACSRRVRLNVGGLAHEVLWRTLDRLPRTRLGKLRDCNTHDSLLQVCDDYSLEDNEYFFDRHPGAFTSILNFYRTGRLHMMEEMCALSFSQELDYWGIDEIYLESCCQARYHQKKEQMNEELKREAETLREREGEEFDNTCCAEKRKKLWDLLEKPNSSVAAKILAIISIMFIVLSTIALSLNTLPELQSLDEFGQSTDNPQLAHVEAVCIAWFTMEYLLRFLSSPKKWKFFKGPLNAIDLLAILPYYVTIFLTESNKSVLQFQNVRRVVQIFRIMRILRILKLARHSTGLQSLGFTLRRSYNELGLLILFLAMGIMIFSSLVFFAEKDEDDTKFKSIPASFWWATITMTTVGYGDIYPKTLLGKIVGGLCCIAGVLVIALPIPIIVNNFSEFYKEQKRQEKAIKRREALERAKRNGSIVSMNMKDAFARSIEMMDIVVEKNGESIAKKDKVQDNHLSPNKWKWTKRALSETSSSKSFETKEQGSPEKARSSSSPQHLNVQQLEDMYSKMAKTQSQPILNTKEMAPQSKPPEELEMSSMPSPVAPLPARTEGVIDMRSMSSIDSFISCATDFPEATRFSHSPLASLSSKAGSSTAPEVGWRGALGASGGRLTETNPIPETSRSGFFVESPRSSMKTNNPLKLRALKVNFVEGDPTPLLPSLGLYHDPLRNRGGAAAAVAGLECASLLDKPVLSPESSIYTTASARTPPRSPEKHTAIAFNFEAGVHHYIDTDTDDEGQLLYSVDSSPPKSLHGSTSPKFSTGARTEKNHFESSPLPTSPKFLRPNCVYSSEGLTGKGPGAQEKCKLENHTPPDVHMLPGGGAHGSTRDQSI

hKv1.5 = hKv1.5 (Homo sapiens, UniProt P22460); test: Patch-clamp block of hKv1.5 channels stably expressed in MEL cells; conditions: 10 nM
Chain of hKv1.5 (P22460 whole entry): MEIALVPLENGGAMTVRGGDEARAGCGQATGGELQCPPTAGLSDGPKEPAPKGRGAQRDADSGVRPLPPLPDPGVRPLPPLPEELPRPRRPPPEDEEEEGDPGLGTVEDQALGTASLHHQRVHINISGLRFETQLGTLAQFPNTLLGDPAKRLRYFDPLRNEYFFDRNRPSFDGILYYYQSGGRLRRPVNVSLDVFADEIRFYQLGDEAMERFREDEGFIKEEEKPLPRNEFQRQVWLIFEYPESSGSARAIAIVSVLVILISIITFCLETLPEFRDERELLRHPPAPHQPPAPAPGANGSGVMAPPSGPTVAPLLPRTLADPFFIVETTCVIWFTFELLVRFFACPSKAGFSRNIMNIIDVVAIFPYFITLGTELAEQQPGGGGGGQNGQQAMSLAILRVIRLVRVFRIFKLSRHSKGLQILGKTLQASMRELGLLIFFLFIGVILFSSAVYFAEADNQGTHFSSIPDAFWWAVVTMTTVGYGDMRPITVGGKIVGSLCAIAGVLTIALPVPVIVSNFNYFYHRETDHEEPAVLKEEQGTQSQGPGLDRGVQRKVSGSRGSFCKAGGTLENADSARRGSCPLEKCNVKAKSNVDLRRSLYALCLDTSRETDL

mKv1.1 = mKv1.1 (Mus musculus, UniProt P16388); test: Patch-clamp block of mKv1.1 channels stably expressed in L929 cells; conditions: for remaining current fraction (RCF) mKv1.1: n=3
Chain of mKv1.1 (P16388 whole entry): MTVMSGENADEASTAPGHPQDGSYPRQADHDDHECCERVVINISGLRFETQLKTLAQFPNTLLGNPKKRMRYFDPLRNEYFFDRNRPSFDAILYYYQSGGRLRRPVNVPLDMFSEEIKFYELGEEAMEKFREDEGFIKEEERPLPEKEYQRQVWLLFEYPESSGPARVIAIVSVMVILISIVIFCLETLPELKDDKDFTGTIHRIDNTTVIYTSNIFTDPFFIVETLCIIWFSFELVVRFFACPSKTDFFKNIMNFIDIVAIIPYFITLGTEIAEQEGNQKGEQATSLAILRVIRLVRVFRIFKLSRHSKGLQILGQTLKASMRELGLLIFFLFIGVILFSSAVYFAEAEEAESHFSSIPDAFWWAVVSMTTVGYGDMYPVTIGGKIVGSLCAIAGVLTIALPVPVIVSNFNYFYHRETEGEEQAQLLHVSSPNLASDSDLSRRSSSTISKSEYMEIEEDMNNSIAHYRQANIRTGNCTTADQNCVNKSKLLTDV

hERG channel = hERG channel (Homo sapiens, UniProt Q12809); test: Patch-clamp block of hERG channels stably expressed in HEK-293 cells; conditions: 10 nM
hBK (KCa1.1) = hBK (KCa1.1) (Homo sapiens, UniProt Q12791); test: Patch-clamp block of hBK (KCa1.1) channels expressed in tsA-201 cells; conditions: 10 nM
Chain of hBK (KCa1.1) (Q12791 1-1178 isoform Q12791-5): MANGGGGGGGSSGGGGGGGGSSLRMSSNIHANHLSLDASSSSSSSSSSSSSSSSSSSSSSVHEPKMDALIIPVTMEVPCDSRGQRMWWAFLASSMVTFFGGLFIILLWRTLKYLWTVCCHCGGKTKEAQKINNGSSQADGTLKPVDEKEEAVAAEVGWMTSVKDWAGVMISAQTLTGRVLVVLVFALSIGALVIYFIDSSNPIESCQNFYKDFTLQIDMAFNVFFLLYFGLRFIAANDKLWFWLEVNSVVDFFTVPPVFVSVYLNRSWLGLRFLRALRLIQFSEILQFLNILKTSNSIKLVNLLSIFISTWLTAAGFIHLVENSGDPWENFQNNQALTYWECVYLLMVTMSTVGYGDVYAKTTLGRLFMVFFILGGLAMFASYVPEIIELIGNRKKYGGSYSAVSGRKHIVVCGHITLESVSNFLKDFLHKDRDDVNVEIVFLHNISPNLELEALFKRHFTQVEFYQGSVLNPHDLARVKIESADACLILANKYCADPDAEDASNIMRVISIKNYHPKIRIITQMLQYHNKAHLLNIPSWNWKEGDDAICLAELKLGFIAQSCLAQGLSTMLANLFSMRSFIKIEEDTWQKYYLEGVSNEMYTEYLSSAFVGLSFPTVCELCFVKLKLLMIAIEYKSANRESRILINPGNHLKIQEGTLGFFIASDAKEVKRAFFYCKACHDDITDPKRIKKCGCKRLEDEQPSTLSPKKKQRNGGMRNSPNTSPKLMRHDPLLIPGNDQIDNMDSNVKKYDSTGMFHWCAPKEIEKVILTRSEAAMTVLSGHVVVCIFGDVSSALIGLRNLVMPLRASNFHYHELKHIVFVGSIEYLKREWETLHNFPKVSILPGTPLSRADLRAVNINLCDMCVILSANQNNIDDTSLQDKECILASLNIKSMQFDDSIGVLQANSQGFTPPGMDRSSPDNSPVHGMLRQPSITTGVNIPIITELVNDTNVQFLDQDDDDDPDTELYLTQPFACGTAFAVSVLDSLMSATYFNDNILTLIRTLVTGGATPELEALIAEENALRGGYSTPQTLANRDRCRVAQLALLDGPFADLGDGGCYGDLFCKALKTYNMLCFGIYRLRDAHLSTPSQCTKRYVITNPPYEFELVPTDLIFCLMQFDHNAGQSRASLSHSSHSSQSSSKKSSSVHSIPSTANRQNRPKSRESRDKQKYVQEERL

hNaV1.5 = hNaV1.5 (Homo sapiens, UniProt Q14524); test: Patch-clamp block of cardiac voltage-gated Na+ channel NaV1.5 expressed in Cos-7 cells; conditions: 10 nM
hKv1.4 = hKv1.4 (Homo sapiens, UniProt P22459); test: Patch-clamp block of fast inactivation-removed hKv1.4 (Kv1.4ΔN) channels in Cos-7 cells; conditions: 10 nM
Chain of hKv1.4 (P22459 148-653): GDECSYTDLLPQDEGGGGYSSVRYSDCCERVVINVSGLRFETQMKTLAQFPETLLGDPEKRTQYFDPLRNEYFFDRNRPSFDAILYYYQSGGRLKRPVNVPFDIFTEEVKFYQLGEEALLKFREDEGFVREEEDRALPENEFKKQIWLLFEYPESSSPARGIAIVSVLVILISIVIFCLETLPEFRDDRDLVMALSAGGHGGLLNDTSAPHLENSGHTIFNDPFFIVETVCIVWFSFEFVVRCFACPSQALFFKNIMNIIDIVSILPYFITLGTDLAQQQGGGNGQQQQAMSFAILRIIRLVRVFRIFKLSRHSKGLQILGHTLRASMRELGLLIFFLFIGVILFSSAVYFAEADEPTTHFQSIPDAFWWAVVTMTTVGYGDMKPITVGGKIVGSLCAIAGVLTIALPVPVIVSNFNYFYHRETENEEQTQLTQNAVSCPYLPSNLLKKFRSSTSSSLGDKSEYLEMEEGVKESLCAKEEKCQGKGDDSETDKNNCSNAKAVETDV

hIKCa1 = hIKCa1 (Homo sapiens, UniProt O15554); test: Patch-clamp block of recombinant hIKCa1 channels expressed in Cos-7 cells (voltage ramps)
Chain of hIKCa1 (O15554 whole entry): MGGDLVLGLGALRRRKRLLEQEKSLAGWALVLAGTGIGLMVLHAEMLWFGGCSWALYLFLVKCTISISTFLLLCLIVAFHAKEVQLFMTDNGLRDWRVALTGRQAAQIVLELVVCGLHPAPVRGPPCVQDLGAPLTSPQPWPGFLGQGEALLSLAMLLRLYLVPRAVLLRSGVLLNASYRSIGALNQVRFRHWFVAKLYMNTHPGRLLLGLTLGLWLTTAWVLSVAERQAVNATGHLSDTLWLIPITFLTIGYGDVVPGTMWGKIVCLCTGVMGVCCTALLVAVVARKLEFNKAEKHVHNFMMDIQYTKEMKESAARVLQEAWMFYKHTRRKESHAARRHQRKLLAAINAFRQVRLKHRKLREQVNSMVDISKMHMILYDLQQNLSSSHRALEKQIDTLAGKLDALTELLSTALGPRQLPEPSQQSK

hKv1.3 channels = hKv1.3 channels (Homo sapiens, UniProt P22001); test: Whole-cell patch-clamp block of hKv1.3 channels endogenously expressed in human peripheral blood T cells; type: cell-based; design: channels expressed endogenously in human peripheral blood T cells; endogenous in cells; host or cells: human peripheral blood T lymphocytes from healthy volunteers, PHA-stimulated
Chain of hKv1.3 channels (P22001 whole entry): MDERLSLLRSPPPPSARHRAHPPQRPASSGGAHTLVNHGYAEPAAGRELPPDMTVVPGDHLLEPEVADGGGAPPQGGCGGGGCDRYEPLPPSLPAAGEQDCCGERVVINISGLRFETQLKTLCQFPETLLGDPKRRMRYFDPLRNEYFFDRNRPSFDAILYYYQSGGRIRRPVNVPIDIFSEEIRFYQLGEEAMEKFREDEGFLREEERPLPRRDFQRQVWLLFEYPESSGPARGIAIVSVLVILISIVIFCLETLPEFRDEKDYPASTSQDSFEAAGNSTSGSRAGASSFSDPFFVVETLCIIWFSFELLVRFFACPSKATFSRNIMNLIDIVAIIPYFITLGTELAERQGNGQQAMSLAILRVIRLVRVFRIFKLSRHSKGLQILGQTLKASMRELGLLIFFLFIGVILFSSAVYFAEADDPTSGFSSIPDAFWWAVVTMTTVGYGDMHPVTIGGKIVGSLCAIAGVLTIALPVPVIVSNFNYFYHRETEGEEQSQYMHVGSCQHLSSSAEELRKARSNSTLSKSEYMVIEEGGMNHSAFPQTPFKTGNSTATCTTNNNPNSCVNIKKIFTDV

CC[C@H](C)[C@H](NC(=O)[C@H](C)NC(=O)[C@H](C)NC(=O)[C@H](C)N)C(=O)N[C@@H](CO)C(=O)N[C@H]1CSSC[C@@H]2NC(=O)[C@H](CCCCN)NC(=O)CNC(=O)[C@H](CC(N)=O)NC(=O)[C@H](CCCCN)NC(=O)[C@@H]3CSSC[C@@H](C(N)=O)NC(=O)[C@H](Cc4ccc(O)cc4)NC(=O)[C@H](Cc4ccc(O)cc4)NC(=O)[C@@H]4CSSC[C@H](NC(=O)[C@H](CCCCN)NC(=O)[C@@H]5CCCN5C(=O)[C@@H]5CCCN5C(=O)[C@H](CSSC[C@H](NC(=O)[C@H](CCCCN)NC(=O)[C@H](CCCNC(=N)N)NC(=O)[C@H](CC(N)=O)NC(=O)[C@H](CCSC)NC2=O)C(=O)N[C@@H](CCCCN)C(=O)N4)NC(=O)[C@H](CCC(=O)O)NC(=O)[C@@H]2CCCN2C(=O)[C@H](CO)NC(=O)CNC(=O)[C@H](C(C)C)NC1=O)C(=O)N[C@@H](CCCNC(=N)N)C(=O)N[C@@H](C)C(=O)N[C@@H](CCC(N)=O)C(=O)NCC(=O)N3 [Vm24]
inflammation of the ear (thickness, unchallenged ear subtracted) (rats): no more than 0.10 mm
toxicity / symptoms of intoxication in mice (mice; up to 200 microgram per mouse of 20 grams (10,000 microgram/kilogram)): not toxic; also recorded: no observable symptoms of intoxication
toxicity in experimental animals (mice; up to 10,000 microgram per 20 gram mouse weight (so in the source)): not toxic
Kd (hKv1.2): 5 to 10 nM
selectivity for hKv1.3 over hKv1.2 (hKv1.2): ≥ 1500 fold
remaining current fraction (RCF) hKv1.2 (hKv1.2; 1 nM): 0.81±0.015
time for equilibrium block of hKv1.2 to develop (hKv1.2; 10 nM): 5.5 min
remaining current fraction (RCF) hKv1.2 (hKv1.2; 10 nM): 0.54±0.08
reversibility of hKv1.2 block (hKv1.2; after 10 nM, wash-out): not fully reversible
effect on rKv2.1 current (rKv2.1): lack of blockade; also recorded: does not modify
effect on hKv1.5 current (hKv1.5): practically insensitive; also recorded: does not modify
Kd (mKv1.1): 30 to 40 nM
selectivity for hKv1.3 over mKv1.1 (mKv1.1): ≥ 10000 fold
remaining current fraction (RCF) mKv1.1 (mKv1.1; 1 nM): 0.97±0.02
time for equilibrium block of mKv1.1 to develop (mKv1.1; 10 nM): 6 min
remaining current fraction (RCF) mKv1.1 (mKv1.1; 10 nM): 0.80±0.02
inhibition at 0.01 µM (mKv1.1; L929, read-out: current inhibition mKv1.1): 20 to 50%
effect on hERG current (hERG channel): lack of blockade; also recorded: does not modify
effect on hBK current (hBK (KCa1.1)): lack of blockade; also recorded: does not modify
effect on NaV1.5 current (hNaV1.5): lack of blockade; also recorded: does not modify
effect on hKv1.4 current (hKv1.4): practically insensitive; also recorded: does not modify
Kd (hIKCa1): ~14 nM
selectivity for hKv1.3 over hIKCa1 (hIKCa1): ≥ 4500 fold
block of hIKCa1 (hIKCa1; 1 nM): practically does not blocks
time to reach equilibrium block of hIKCa1 (hIKCa1; 10 nM): 4.5 min
inhibition at 0.01 µM (hIKCa1; COS-7, read-out: current inhibition hIKCa1, 10 nM): ~40%
remaining activity at 0.01 µM (hIKCa1; COS-7, read-out: slope s of current-voltage relationship, % of control): ~52%
reversal of hIKCa1 block on wash-out (hIKCa1; after 10 nM, in 2.5 min toxin-free solution): fully reversed
block of hKv1.3 current (hKv1.3 channels; 3 pM): over 50%
level at which loss of current saturates, % of the peak recorded in control solution (hKv1.3 channels; 3 pM, 10.5-minute application): ~36%
block of hKv1.3 current (words) (hKv1.3 channels; 0.3 nM): full block
block of hKv1.3 current (words) (hKv1.3 channels; 1 nM): completely disappeared; also recorded: full block; also recorded: blocks hKv1.3 channels completely; also recorded: almost completely blocked
blockage of hKv1.3 current (hKv1.3 channels; 10 nM): 100%
time for equilibrium block of hKv1.3 to develop (hKv1.3 channels; 10 nM): 3.5 min
remaining current fraction (RCF) hKv1.3 (hKv1.3 channels; 10 nM, mean±SEM, n=3): 0.01±0.01
fraction of blocked hKv1.3 current recovered (hKv1.3 channels; 30 minute washout after 3 pM): one third
Hill coefficient n (hKv1.3 channels; dose-response fit, hKv1.3): ~1
Kd (hKv1.3 channels; fit of dose-response of remaining current fraction, human T cells, stated to be an overestimate of the real Kd, read-out: Kd (dissociation constant) for hKv1.3): 0.0029 nM and < 0.003 nM
off rate (hKv1.3 channels; from wash-out time constant after 3 pM): ~0.00026 s⁻¹

Reference: patent publication US8394770B2 (priority 2007, dated 2013)
